Counter-ions that a name gives are not always drawn. Like-named read-outs stand apart in the source and are kept apart here.
Tests used:
Type in all cases: cell-based
[1] = biological target: MCL1 protein / biotinylated BIM BH3 peptide in RKO cells (Homo sapiens (Human), UniProt Q07820); assay: PIxEL: protein-protein interaction in permeabilized cells by ELISA (Assay 5); details: PIxEL IC50 (median)
Protocol: PIxEL: Protein-Protein Interaction in Permeabilized Cells by ELISA
Most MCL1 protein molecules are localized at the mitochondria outer membrane and sequester pro-apoptotic proteins through binding of their BCL2 homology domain 3 (BH3 domain). MEB buffer (150 mM mannitol, 10 mM HEPES pH 7.5, 50 mM KCl, 20 μM EDTA, 20 μM EGTA, 5 mM potassium succinate, 0.1% protease-free BSA (SIGMA) with low dose digitonin (0.002%) permeabilizes plasma membrane while leaves live mitochondria, where MCL1 maintains its native localization and conformation. Unlike biophysical assays (e.g. TR-FRET) that use truncated recombinant MCL1 protein, this assay uses full length endogenous MCL1 protein at mitochondria outer membrane. It measures the interaction between MCL1 protein and biotinylated BIM BH3 peptide. Compounds can compete with BIM BH3 peptide to bind to MCL1 protein.
On day 1, RKO colon cancer cell line cells were plated at 0.8 million cells/ml, 100 μl/well in 96-well flat bottom TC plates (Corning). MCL1 antibody (Santa Cruz sc-12756) were diluted at 200 fold (final concentration 1 μg/ml) in carbonate buffer (Thermo Fisher Scientific, pH 9.6), and 50 μl of diluted antibody was added to each well of high bind ELISA plates ([…]). Each plate was tapped to make sure liquid covering entire bottom of wells and incubate at 37° C. overnight.
On the second day, MCL1 antibody was washed from ELISA plate. 250 μl Odyssey® Blocking Buffer (PBS) (Li-Cor) was added to each well, incubated at room temperature for at least 1 hour, then washed once with 250 μl 1×PBST. Plates with RKO cells were gently washed once with 100 μl/well PBS, once with 100 μl/well MEB buffer without digitonin, then 100 μl of MEB buffer with 0.002% digitonin was gently added to each well. Compounds were added with HP Tecan compound dispenser in 3-fold dilution series, highest dose 30 μM, 10-dose per compound in quadruplicates. Biotin-BIM peptide (synthesized by 21st Century) was added with HP Tecan compound dispenser at 0.2 μM immediately after the addition of compounds. Plates were rocked for 1 hour at room temperature. Then MEB buffer was aspirated and 50 μl of CHAPS buffer (50 mM Tris-Cl, pH 7.4, 150 mM NaCl, 1% CHAPS, 1 mM EDTA, 1 mM EGTA, cOmplete protease inhibitors (Roche), PhosSTOP (Roche)) was added to each well. Plates were rocked for 1 hour at 4° C., then 45 μl cell lysate from each well were transferred to ELISA plates coated with MCL1 antibody. Plates were incubated overnight in the cold room with rocking.
On the third day, ELISA plates were washed once with 250 μl 1×PBST. Streptavidin-poly-HRP (Thermo Fisher Scientific) was diluted to 20 ng/ml in Odyssey blocking buffer plus 0.05% Triton-100, and 100 μl was added to each well of the ELISA plate. Plates were incubated at room temperature for 1 hour with rocking, then washed with 100 μl 1×PBST for 3 times. Each SuperSignal ELISA Femto Maximum Sensitivity substrate was added to a 50-ml tube and mixed, then 100 μl of mixed substrate was added to each well. Plates were shaken for 1 minute then luminescence was measured by Envision plate reader […]. Signal of each well were normalized by no-compound control and no-cell control. IC50 was calculated using Graphic Pad PRISM software.

AMO-1 cells = assay: Antiproliferation assay AMO-1 (Assay 7)
How it was run: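 Growth inhibition is determined from ATP luminescence (CellTiter-Glo) following 72 h incubation with compound. Time-zero cells are measured the same way for baseline, and IC50s are referenced to DMSO controls.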

SUDHL10 cells = assay: Induction of cytotoxicity in SUDHL10 cells (Assay 6); details: 5 h, CellTiter-Glo, read-out: Cytotox SUDHL10 IC50 (median)
How it was run: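 SUDHL5 and SUDHL10 cells plated and held overnight at 37° C, then incubated 5 h at 37° C with compound. Viability measured by CellTiter-Glo luminescence after 15 min shaking at room temperature. Cell-free medium wells served as control.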

[2] = 72 h, CellTiter-Glo, read-out: Antiproli AMO-1 IC50 median
[3] = Homo sapiens, AMO1, 72 h, 72 h, CellTiter-Glo, read-out: Antiproli AMO-1 IC50 median
[4] = read-out: Antiproli AMO-1 IC50 median, 72 h, CellTiter-Glo

Chain of MCL1 protein / biotinylated BIM BH3 peptide in RKO cells (Q07820 whole entry): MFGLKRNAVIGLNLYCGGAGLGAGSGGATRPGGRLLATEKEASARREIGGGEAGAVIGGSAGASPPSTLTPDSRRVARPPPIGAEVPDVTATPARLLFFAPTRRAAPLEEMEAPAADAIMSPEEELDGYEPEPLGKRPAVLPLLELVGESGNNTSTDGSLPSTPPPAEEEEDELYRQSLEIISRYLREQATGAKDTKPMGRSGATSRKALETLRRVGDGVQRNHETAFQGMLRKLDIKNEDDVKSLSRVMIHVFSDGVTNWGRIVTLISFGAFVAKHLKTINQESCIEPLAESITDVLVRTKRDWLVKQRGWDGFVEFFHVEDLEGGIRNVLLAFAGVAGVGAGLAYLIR

Compound `CCc1c2c(nn1C)C(CCN1CCOCC1)OCCCCn1c(C(=O)O)c(CCCOc3cccc4cc(F)ccc34)c3ccc(F)c-2c31` (single isomer, unassigned; enantiomer 2) [Example 51, (−)-3-ethyl-4-fluoro-7-{3-[(6-fluoronaphthalen-1-yl)oxy]propyl}-2-methyl-15-[2-(morpholin-4-yl)ethyl]-2,10,11,12,13,15-hexahydropyrazolo[4′,3′:9,10][1,6]oxazacycloundecino[8,7,6-hi]indole-8-carboxylic Acid (Enantiomer 2)] has an IC50 [1] of 12 µM, an IC50 (AMO-1 cells; [2]) of 10.8 µM and an IC50 (SUDHL10 cells) of 3.7 µM.

`Cc1c2c(nn1C)C(CCO)OCCCCn1c(C(=O)O)c(CCCOc3cccc4ccccc34)c3ccc(Cl)c-2c31` (racemic) [Example 26, (rac)-4-chloro-15-(2-hydroxyethyl)-2,3-dimethyl-7-{3-[(naphthalen-1-yl)oxy]propyl}-2,10,11,12,13,15-hexahydropyrazolo[4′,3′:9,10][1,6]oxazacycloundecino[8,7,6-hi]indole-8-carboxylic Acid] gave an IC50 [1] of 1.25 µM, an IC50 (AMO-1 cells; [3]) of 0.577 µM and an IC50 (SUDHL10 cells; Homo sapiens, SU-DHL10, 5 h) of 0.87 µM.

`CCc1c2c(nn1C)C(CCOC)OCCCCn1c(C(=O)O)c(CCCOc3cccc4cc(F)ccc34)c3ccc(Cl)c-2c31` (single isomer, unassigned; enantiomer 1) [Example 42, (+)-4-chloro-3-ethyl-7-{3-[(6-fluoronaphthalen-1-yl)oxy]propyl}-15-(2-methoxyethyl)-2-methyl-2,10,11,12,13,15-hexahydropyrazolo[4′,3′:9,10][1,6]oxazacycloundecino[8,7,6-hi]indole-8-carboxylic Acid—N-ethylethanamine Salt (Enantiomer 1)] showed an IC50 [1] of 0.0451 µM, an IC50 (AMO-1 cells; [4]) of 0.0969 µM and an IC50 (SUDHL10 cells) of 0.066 µM.

Work on `CCc1c2c(nn1C)C(CC(C)(C)O)OCCCCn1c(C(=O)O)c(CCCOc3cccc4cc(F)ccc34)c3ccc(Cl)c-2c31` (single isomer, unassigned; enantiomer 1) [Example 53, (+)-4-chloro-3-ethyl-7-{3-[(6-fluoronaphthalen-1-yl)oxy]propyl}-15-(2-hydroxy-2-methylpropyl)-2-methyl-2,10,11,12,13,15-hexahydropyrazolo[4′,3′:9,10][1,6]oxazacycloundecino[8,7,6-hi]indole-8-carboxylic Acid—N-ethylethanamine Salt (Enantiomer 1)] yielded an IC50 [1] of 0.135 µM, an IC50 (AMO-1 cells; [4]) of 0.185 µM and an IC50 (SUDHL10 cells) of 0.19 µM.

`Cc1c2c(nn1C)C(CCN1CCOCC1)OCCCCn1c(C(=O)O)c(CCCOc3cccc4ccccc34)c3ccc(Cl)c-2c31` (single isomer, unassigned; enantiomer 2) [Example 15, 4-chloro-2,3-dimethyl-15-[2-(morpholin-4-yl)ethyl]-7-{3-[(naphthalen-1-yl)oxy]propyl}-2,10,11,12,13,15-hexahydropyrazolo[4′,3′:9,10][1,6]oxazacycloundecino[8,7,6-hi]indole-8-carboxylic Acid (Enantiomer 2)] showed an IC50 [1] of 12.5 µM, an IC50 (AMO-1 cells; [2]) of 10.5 µM and an IC50 (SUDHL10 cells) of 9.7 µM.

`CCc1c2c(nn1C)C1CCCN1CCCCn1c(C(=O)O)c(CCCOc3cccc4cc(F)ccc34)c3ccc(Cl)c-2c31` (single isomer, unassigned; (+)) [Example 105, (+)-17-chloro-1-ethyl-14-{3-[(6-fluoronaphthalen-1-yl)oxy]propyl}-2-methyl-3b,4,5,6,8,9,10,11-octahydro-2H-pyrazolo[3′,4′:8,9]pyrrolo[1′,2′:6,7][1,6]diazacycloundecino[10,11,1-hi]indole-13-carboxylic Acid] was tested, and the IC50 [1] was 0.063 µM, the IC50 (AMO-1 cells; [2]) was 0.203 µM and the IC50 (SUDHL10 cells) was 0.29 µM.

For `Cc1c2c(nn1C)C(CCO)OCCCCn1c(C(=O)O)c(CCCOc3cccc4ccccc34)c3ccc(Cl)c-2c31` (single isomer, unassigned; enantiomer 1) [Example 31, (+)-4-chloro-15-(2-hydroxyethyl)-2,3-dimethyl-7-{3-[(naphthalen-1-yl)oxy]propyl}-2,10,11,12,13,15-hexahydropyrazolo[4′,3′:9,10][1,6]oxazacycloundecino[8,7,6-hi]indole-8-carboxylic Acid (Enantiomer 1)], the IC50 [1] was 0.481 µM, the IC50 (AMO-1 cells; [2]) was 0.326 µM and the IC50 (SUDHL10 cells) was 0.35 µM.

`CCc1c2c(nn1C)C(CCC(C)(C)O)OCCCCn1c(C(=O)O)c(CCCOc3cccc4cc(F)ccc34)c3ccc(Cl)c-2c31` (single isomer, unassigned; enantiomer 1) [Example 75, (+)-4-chloro-3-ethyl-7-{3-[(6-fluoronaphthalen-1-yl)oxy]propyl}-15-(3-hydroxy-3-methylbutyl)-2-methyl-2,10,11,12,13,15-hexahydropyrazolo[4′,3′:9,10][1,6]oxazacycloundecino[8,7,6-hi]indole-8-carboxylic Acid—N-ethylethanamine Salt (Enantiomer 1)] gave an IC50 [1] of 0.0275 µM, an IC50 (AMO-1 cells; [2]) of 0.0138 µM and an IC50 (SUDHL10 cells) of 0.0097 µM.

`CCc1c2c(nn1C)C(CCN1CCOCC1)OCCCCn1c(C(=O)O)c(CCCOc3cccc4ccccc34)c3ccc(F)c-2c31` (single isomer, unassigned; enantiomer 2) [Example 12, 3-ethyl-4-fluoro-2-methyl-15-[2-(morpholin-4-yl)ethyl]-7-{3-[(naphthalen-1-yl)oxy]propyl}-2,10,11,12,13,15-hexahydropyrazolo[4′,3′:9,10][1,6]oxazacycloundecino[8,7,6-hi]indole-8-carboxylic Acid—N-ethylethanamine Salt (Enantiomer 2)] gave an IC50 [1] of 19.4 µM, an IC50 (AMO-1 cells; [4]) of 12.1 µM and an IC50 (SUDHL10 cells) of 8.1 µM.

`CCc1c2c(nn1C)C(C1CC1)OCCCCn1c(C(=O)O)c(CCCOc3cccc4cc(F)ccc34)c3ccc(Cl)c-2c31` (single isomer, unassigned; enantiomer 1) [Example 39, (+)-4-chloro-15-cyclopropyl-3-ethyl-7-{3-[(6-fluoronaphthalen-1-yl)oxy]propyl}-2-methyl-2,10,11,12,13,15-hexahydropyrazolo[4′,3′:9,10][1,6]oxazacycloundecino[8,7,6-hi]indole-8-carboxylic Acid—N-ethylethanamine Salt (Enantiomer 1)] gave an IC50 [1] of 0.317 µM, an IC50 (AMO-1 cells; Homo sapiens, AMO1, 72 h, read-out: Antiproli AMO-1 IC50 median, 72 h, CellTiter-Glo) of 4.94 µM and an IC50 (SUDHL10 cells) of 1.4 µM.

`CCc1c2c(nn1C)C(CCO)OCCCCn1c(C(=O)O)c(CCCOc3cccc4cc(F)ccc34)c3ccc(Cl)c-2c31` (single isomer, unassigned; enantiomer 1) [Example 45, (+)-4-chloro-3-ethyl-7-{3-[(6-fluoronaphthalen-1-yl)oxy]propyl}-15-(2-hydroxyethyl)-2-methyl-2,10,11,12,13,15-hexahydropyrazolo[4′,3′:9,10][1,6]oxazacycloundecino[8,7,6-hi]indole-8-carboxylic Acid (Enantiomer 1)] gave an IC50 [1] of 0.155 µM, an IC50 (AMO-1 cells; [2]) of 0.185 µM and an IC50 (SUDHL10 cells) of 0.073 µM.

Compound `CCc1c2c(nn1C)C(CCN1CCOCC1)OCCCCn1c(C(=O)O)c(CCCOc3cccc4ccccc34)c3ccc(F)c-2c31` (racemic) [Example 10, (rac)-3-ethyl-4-fluoro-2-methyl-15-[2-(morpholin-4-yl)ethyl]-7-[3-(naphthalen-1-yloxy)propyl]-2,10,11,12,13,15-hexahydropyrazolo[4′,3′:9,10][1,6]oxazacycloundecino[8,7,6-hi]indole-8-carboxylic Acid] has an IC50 [1] of 0.325 µM, an IC50 (AMO-1 cells; [3]) of 0.412 µM and an IC50 (SUDHL10 cells; Homo sapiens, SU-DHL10, 5 h) of 0.3 µM.
